Results: PubChem BioAssay AID1845201 (Molecular Pharmacology Branch, DTP, NCI, 2023)
Values joined by “and” are separate entries in the source; they are usually repeats but may differ in a detail not shown here. Equal values may be shown once.

Tested on: COR L88 complex tumor spheroid viability
Test: Anticancer human tumor COR L88 cell line growth inhibition;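 also: compound exposure lasted 7 days before viability readout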;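 as to viability, T/C: percent of DMSO vehicle-treated spheroids = 100%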
Conditions: for viability, T/C: stronger effect = lower value
Outline: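 Complex spheroids of malignant cells with endothelial cells and mesenchymal stem cells; agents alone or combined, from near clinical Cmax (or 10 microM if unknown) down in half-log steps, 0.25% DMSO final.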

[1] = curve of first compound, second compound 0.003 µM
[2] = second compound 0.003 µM, first compound 0.0316 µM
[3] = second compound 0.003 µM, first compound 0.1 µM
[4] = second compound 0.003 µM, first compound 0.316 µM
[5] = second compound 0.003 µM, first compound 1 µM
[6] = second compound 0.003 µM, first compound 3.16 µM
[7] = second compound 0.003 µM, first compound 10 µM

CC(C)n1c(=O)n(C)c2cnc3cc(F)c(-c4ccc(OCCCN5CCCCC5)nc4)cc3c21 + Cn1nnc2c(C(N)=O)ncn2c1=O
IC50 (curve of first compound, second compound 1 µM): > 10 µM | IC50 (curve of first compound, second compound 3.16 µM): > 10 µM | IC50 (curve of first compound, second compound 10 µM): > 10 µM | IC50 (curve of first compound, second compound 31.6 µM): 6.87 µM | IC50 (curve of first compound, second compound 100 µM): 5.06 µM | viability, T/C (second compound 1 µM, first compound 0.0316 µM): 104% | viability, T/C (second compound 1 µM, first compound 0.1 µM): 97.7% | viability, T/C (second compound 1 µM, first compound 0.316 µM): 98.9% | viability, T/C (second compound 1 µM, first compound 1 µM): 94.5% | viability, T/C (second compound 1 µM, first compound 3.16 µM): 80.7% | viability, T/C (second compound 1 µM, first compound 10 µM): 52.8% | viability, T/C (second compound 3.16 µM, first compound 0.0316 µM): 96.2% | viability, T/C (second compound 3.16 µM, first compound 0.1 µM): 105% | viability, T/C (second compound 3.16 µM, first compound 0.316 µM): 98.2% | viability, T/C (second compound 3.16 µM, first compound 1 µM): 95.4% | viability, T/C (second compound 3.16 µM, first compound 3.16 µM): 80% | viability, T/C (second compound 3.16 µM, first compound 10 µM): 54.6% | viability, T/C (second compound 10 µM, first compound 0.0316 µM): 96.2% | viability, T/C (second compound 10 µM, first compound 0.1 µM): 91.6% | viability, T/C (second compound 10 µM, first compound 0.316 µM): 94.5% | viability, T/C (second compound 10 µM, first compound 1 µM): 91.2% | viability, T/C (second compound 10 µM, first compound 3.16 µM): 76.1% | viability, T/C (second compound 10 µM, first compound 10 µM): 50.8% | viability, T/C (second compound 31.6 µM, first compound 0.0316 µM): 87.1% | viability, T/C (second compound 31.6 µM, first compound 0.1 µM): 84.8% | viability, T/C (second compound 31.6 µM, first compound 0.316 µM): 87.5% | viability, T/C (second compound 31.6 µM, first compound 1 µM): 80.9% | viability, T/C (second compound 31.6 µM, first compound 3.16 µM): 67.4% | viability, T/C (second compound 31.6 µM, first compound 10 µM): 41.2% | viability, T/C (second compound 100 µM, first compound 0.0316 µM): 72.5% | viability, T/C (second compound 100 µM, first compound 0.1 µM): 69% | viability, T/C (second compound 100 µM, first compound 0.316 µM): 74% | viability, T/C (second compound 100 µM, first compound 1 µM): 76% | viability, T/C (second compound 100 µM, first compound 3.16 µM): 56.9% | viability, T/C (second compound 100 µM, first compound 10 µM): 40.1%

COc1cc(C)[nH]c(=O)c1CN1CCc2c(Cl)cc(C(OC)C3COC3)c(Cl)c2C1=O (stereo not drawn) + COc1cc2c(cc1O)CCNC21CSC2c3c(OC(C)=O)c(C)c4c(c3C(COC1=O)N1C(O)C3Cc5cc(C)c(OC)c(O)c5C(C21)N3C)OCO4
IC50 (curve of first compound, second compound 30 pM): > 10 µM | IC50 (curve of first compound, second compound 94.9 pM): > 10 µM | IC50 (curve of first compound, second compound 0.0003 µM): < 0.0316 µM | IC50 (curve of first compound, second compound 0.000949 µM): < 0.0316 µM | IC50 [1]: < 0.0316 µM | viability, T/C (second compound 30 pM, first compound 0.0316 µM): 109% | viability, T/C (second compound 30 pM, first compound 0.1 µM): 98.7% | viability, T/C (second compound 30 pM, first compound 0.316 µM): 96.8% | viability, T/C (second compound 30 pM, first compound 1 µM): 91.4% | viability, T/C (second compound 30 pM, first compound 3.16 µM): 86.7% | viability, T/C (second compound 30 pM, first compound 10 µM): 83.2% | viability, T/C (second compound 94.9 pM, first compound 0.0316 µM): 99.4% | viability, T/C (second compound 94.9 pM, first compound 0.1 µM): 84.2% | viability, T/C (second compound 94.9 pM, first compound 0.316 µM): 82.2% | viability, T/C (second compound 94.9 pM, first compound 1 µM): 86.2% | viability, T/C (second compound 94.9 pM, first compound 3.16 µM): 80.9% | viability, T/C (second compound 94.9 pM, first compound 10 µM): 80.9% | viability, T/C (second compound 0.0003 µM, first compound 0.0316 µM): 49.3% | viability, T/C (second compound 0.0003 µM, first compound 0.1 µM): 41.2% | viability, T/C (second compound 0.0003 µM, first compound 0.316 µM): 38% | viability, T/C (second compound 0.0003 µM, first compound 1 µM): 36.3% | viability, T/C (second compound 0.0003 µM, first compound 3.16 µM): 34.2% | viability, T/C (second compound 0.0003 µM, first compound 10 µM): 31.3% | viability, T/C (second compound 0.000949 µM, first compound 0.0316 µM): 39.6% | viability, T/C (second compound 0.000949 µM, first compound 0.1 µM): 47.4% | viability, T/C (second compound 0.000949 µM, first compound 0.316 µM): 44.6% | viability, T/C (second compound 0.000949 µM, first compound 1 µM): 37.7% | viability, T/C (second compound 0.000949 µM, first compound 3.16 µM): 34.1% | viability, T/C (second compound 0.000949 µM, first compound 10 µM): 18.3% | viability, T/C [2]: 1.16% | viability, T/C [3]: 1.08% | viability, T/C [4]: 0.9% | viability, T/C [5]: 1.24% | viability, T/C [6]: 1.05% | viability, T/C [7]: 1.71%

Cc1cc(C)c(CNC(=O)c2cc(-c3ccc(CN4CCOCC4)cc3)cc3c2cnn3C2CCCC2)c(=O)[nH]1 + CC[C@@]1(O)C(=O)OCc2c1cc1n(c2=O)Cc2cc3c(CN(C)C)c(O)ccc3nc2-1
IC50 [1]: 8.33 µM | IC50 (curve of first compound, second compound 0.00949 µM): > 10 µM | IC50 (curve of first compound, second compound 0.03 µM): 0.252 µM | IC50 (curve of first compound, second compound 0.0949 µM): 0.0441 µM | IC50 (curve of first compound, second compound 0.3 µM): < 0.0316 µM | viability, T/C [2]: 87% | viability, T/C [3]: 91.7% | viability, T/C [4]: 90.4% | viability, T/C [5]: 80.8% | viability, T/C [6]: 73.1% | viability, T/C [7]: 45.5% | viability, T/C (second compound 0.00949 µM, first compound 0.0316 µM): 76.9% | viability, T/C (second compound 0.00949 µM, first compound 0.1 µM): 81.5% | viability, T/C (second compound 0.00949 µM, first compound 0.316 µM): 83.8% | viability, T/C (second compound 0.00949 µM, first compound 1 µM): 73% | viability, T/C (second compound 0.00949 µM, first compound 3.16 µM): 60.3% | viability, T/C (second compound 0.00949 µM, first compound 10 µM): 54.4% | viability, T/C (second compound 0.03 µM, first compound 0.0316 µM): 52.4% | viability, T/C (second compound 0.03 µM, first compound 0.1 µM): 56.2% | viability, T/C (second compound 0.03 µM, first compound 0.316 µM): 47.1% | viability, T/C (second compound 0.03 µM, first compound 1 µM): 46.3% | viability, T/C (second compound 0.03 µM, first compound 3.16 µM): 43% | viability, T/C (second compound 0.03 µM, first compound 10 µM): 39.2% | viability, T/C (second compound 0.0949 µM, first compound 0.0316 µM): 51.7% | viability, T/C (second compound 0.0949 µM, first compound 0.1 µM): 48.2% | viability, T/C (second compound 0.0949 µM, first compound 0.316 µM): 45.1% | viability, T/C (second compound 0.0949 µM, first compound 1 µM): 45.9% | viability, T/C (second compound 0.0949 µM, first compound 3.16 µM): 40.5% | viability, T/C (second compound 0.0949 µM, first compound 10 µM): 41.7% | viability, T/C (second compound 0.3 µM, first compound 0.0316 µM): 40.5% | viability, T/C (second compound 0.3 µM, first compound 0.1 µM): 38.4% | viability, T/C (second compound 0.3 µM, first compound 0.316 µM): 39% | viability, T/C (second compound 0.3 µM, first compound 1 µM): 38.1% | viability, T/C (second compound 0.3 µM, first compound 3.16 µM): 35.8% | viability, T/C (second compound 0.3 µM, first compound 10 µM): 30.4%

CC(C)n1c(=O)n(C)c2cnc3cc(F)c(-c4ccc(OCCCN5CCCCC5)nc4)cc3c21
viability, T/C (compound 0.0316 µM): 103% and 92.5% and 102% | viability, T/C (compound 0.1 µM): 113% and 103% (2×) | viability, T/C (compound 0.316 µM): 110% and 99.5% and 98.2% | viability, T/C (compound 1 µM): 94.8% and 88.6% and 99% | viability, T/C (compound 3.16 µM): 95.3% and 89.8% and 87.5% | viability, T/C (compound 10 µM): 56.5% and 61% and 56.6% | IC50 (curve of compound): > 10 µM

COc1cc2c(cc1O)CCNC21CSC2c3c(OC(C)=O)c(C)c4c(c3C(COC1=O)N1C(O)C3Cc5cc(C)c(OC)c(O)c5C(C21)N3C)OCO4 (stereo not drawn)
viability, T/C (compound 30 pM): 103% [middle of 10 runs] | viability, T/C (compound 94.9 pM): 110% [middle of 10 runs] | viability, T/C (compound 0.0003 µM): 71.5% [middle of 10 runs] | viability, T/C (compound 0.000949 µM): 59.8% [middle of 10 runs] | viability, T/C (compound 0.003 µM): 0.67% [middle of 10 runs] | IC50 (compound alone, run of 10/25/2019): 1.02 nM [middle of 10 runs]
